Measurements published in PMC3492160, “Identification of white campion (Silene latifolia) guaiacol O-methyltransferase involved in the biosynthesis of veratrole, a key volatile for pollinator attraction” (BMC Plant Biology, 2012).

Legend:
SlGOMT1 = system: T1, SlGOMT1; test: radiometric methylation assay with […]-SAM, ethyl acetate extraction, double reciprocal plot; format: biochemical, Silene latifolia; conditions: SAM 200 μM constant; 5 mM MgCl2; Tris-HCl pH 7.5; room temperature; apparent Km
T1 construct: no tag removal described

SlGOMT2 = system: T2, SlGOMT2; test: as above; format: biochemical, Silene latifolia; conditions: SAM 200 μM constant; 5 mM MgCl2; Tris-HCl pH 7.5; room temperature; apparent Km
T2 construct: no tag removal described

A Km (SlGOMT1) of 9.79 ± 1.51 µM and a Km (SlGOMT2) of 501 ± 198 µM were found for COc1ccccc1O [guaiacol] in this work.
